From the supplement of paper PMC10733146

What was measured:
Experiment in all cases: viability relative to DMSO control (fraction); higher = less drug effect (more viable cells)
Settings in all cases: 48 h
Idarubicin = compound: CC(=O)[C@]1(O)Cc2c(O)c3c(c(O)c2[C@@H](O[C@H]2C[C@H](N)[C@H](O)[C@H](C)O2)C1)C(=O)c1ccccc1C3=O [Idarubicin]
Method in brief: (§1)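 Viability was measured as CellTiter-Glo luminescence relative to the median of 16 inner DMSO wells. Primary mononuclear tumour cells, fresh or cryopreserved, were Ficoll-isolated from blood or bone marrow or taken from processed lymph node. They were seeded at 4 × 10^4 cells per well into 384-well plates holding pre-plated compounds at five concentrations, one well each, and kept in RPMI-1640 with penicillin/streptomycin, L-glutamine and human serum at 37 °C and 5% CO2 for 48 h.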

[1] = compound: CC(C)(C)OC(=O)Nc1ccc(-c2cc(C(=O)NCCCCCCC(=O)NO)no2)cc1
Method in brief: as §1

BEZ235 = compound: Cn1c(=O)n(-c2ccc(C(C)(C)C#N)cc2)c2c3cc(-c4cnc5ccccc5c4)ccc3ncc21 [BEZ235]
Method in brief: as §1

Pentostatin = compound: OC[C@H]1O[C@@H](n2cnc3c2N=CNC[C@H]3O)C[C@@H]1O [Pentostatin]
Method in brief: as §1

Test System	viability (Idarubicin; 0.024 µM)	viability (Idarubicin; 0.12 µM)	viability (Idarubicin; 0.6 µM)	viability (Idarubicin; 3 µM)	viability (Idarubicin; 15 µM)	viability ([1]; 0.024 µM)	viability ([1]; 0.12 µM)	viability ([1]; 0.6 µM)	viability ([1]; 3 µM)	viability ([1]; 15 µM)	viability (BEZ235; 0.024 µM)	viability (BEZ235; 0.12 µM)	viability (BEZ235; 0.6 µM)	viability (BEZ235; 3 µM)	viability (BEZ235; 15 µM)	viability (Pentostatin; 0.03 µM)	viability (Pentostatin; 0.15 µM)	viability (Pentostatin; 0.75 µM)	viability (Pentostatin; 3.75 µM)	viability (Pentostatin; 18.76 µM)
primary ALL patient cells (S048)	0.171	0.0644	0.0177	0.0135	0.0126	0.479	0.287	0.104	0.0485	0.0165	0.858	0.846	0.618	0.552	0.269	1.1	1	1.04	0.891	0.851
primary ALL patient cells (S088)	0.341	0.0818	0.0274	0.0177	0.0163	0.612	0.528	0.264	0.127	0.063	0.751	0.644	0.529	0.427	0.254	0.809	0.725	0.786	0.669	0.706
primary AML patient cells (S002)	0.332	0.303	0.267	0.217	0.165	1.04	0.659	0.419	0.307	0.272	0.979	0.963	0.868	0.853	0.409	0.785	0.701	1.08	0.835	1.07
primary AML patient cells (S006)	0.132	0.0658	0.0381	0.0276	0.0298	0.998	0.978	1.04	0.377	0.112	0.873	0.968	0.71	0.749	0.262	0.922	0.912	1.13	1.01	0.857
primary AML patient cells (S009)	0.615	0.447	0.0924	0.0581	0.0709	0.892	0.857	0.655	0.294	0.136	1.03	0.917	0.89	0.555	0.213	0.999	0.951	0.886	0.811	0.701
primary AML patient cells (S011)	0.338	0.0947	0.0202	0.0148	0.0146	0.978	0.782	0.397	0.221	0.17	0.826	0.94	0.597	0.85	0.259	1.03	1.03	1.02	0.875	1.41
primary AML patient cells (S012)	0.955	0.876	0.746	0.0405	0.0381	1	1.04	0.964	0.432	0.0462	0.992	0.921	0.981	0.958	0.391	1	0.8	0.94	0.783	0.835
primary AML patient cells (S017)	0.987	0.675	0.121	0.0316	0.0254	1.07	0.968	0.746	0.205	0.135	0.948	1.02	0.919	0.969	0.604	0.829	0.994	1.04	0.972	0.842
primary AML patient cells (S019)	0.45	0.157	0.0819	0.0808	0.0541	0.979	0.977	0.935	0.748	0.352	1.02	1.34	0.821	1	0.391	1.04	0.985	1.02	1.01	0.857
primary AML patient cells (S021)	0.308	0.223	0.156	0.127	0.0975	0.81	0.761	0.582	0.401	0.27	0.806	0.919	0.839	0.943	0.51	1.01	1.03	1.05	0.951	0.608
primary AML patient cells (S025)	0.407	0.541	0.0328	0.0323	0.0209	0.923	0.93	0.807	0.429	0.331	0.918	1.04	0.891	1	0.594	0.954	0.972	1.02	0.932	0.861
primary AML patient cells (S037)	0.593	0.389	0.337	0.337	0.242	0.958	0.799	0.522	0.38	0.38	0.931	1.07	0.933	1.02	0.745	1.02	0.98	0.954	0.782	0.751
primary AML patient cells (S055)	0.992	0.712	0.0486	0.0426	0.0227	0.958	0.956	0.829	0.468	0.0614	0.958	0.743	0.584	0.642	0.562	1.03	1.03	0.994	1.01	0.896
primary AML patient cells (S056)	0.155	0.0949	0.0642	0.0579	0.0501	0.672	0.425	0.241	0.067	0.0413	0.827	0.847	0.653	0.578	0.494	1.15	0.961	1.14	0.775	0.804
primary AML patient cells (S060)	1.14	1.04	0.463	0.0162	0.0156	1.09	1.05	0.969	0.206	0.0414	0.941	1.05	0.93	1.03	0.794	0.965	0.979	1	1.02	0.921
primary AML patient cells (S071)	0.125	0.112	0.0685	0.0903	0.0277	0.832	0.739	0.75	0.304	0.105	0.787	0.672	0.479	0.595	0.438	1.02	0.958	0.928	0.854	0.664
primary AML patient cells (S072)	0.842	0.543	0.0696	0.0437	0.0252	0.887	0.763	0.673	0.297	0.175	0.924	0.966	0.764	0.687	0.331	0.963	0.897	0.897	0.832	0.801
primary AML patient cells (S079)	0.758	0.604	0.118	0.0155	0.0137	0.872	0.743	0.574	0.168	0.085	0.88	0.959	0.794	0.779	0.513	1.01	0.935	0.938	0.898	0.854
primary AML patient cells (S081)	1.16	1.3	0.382	0.0142	0.0148	0.919	0.864	0.754	0.194	0.0314	0.966	1.05	0.956	1.04	0.711	1.02	0.987	1.01	1.01	0.969
primary AML patient cells (S085)	0.313	0.186	0.0302	0.0201	0.0181	1.03	0.784	0.334	0.0887	0.047	0.855	0.695	0.588	0.628	0.308	1.11	1.03	0.965	0.869	0.77
primary AML patient cells (S089)	0.473	0.128	0.0271	0.0237	0.0287	0.477	0.406	0.306	0.0737	0.0256	1.11	1.14	0.84	0.511	0.431	0.836	1.01	0.918	1.03	0.881
primary AML patient cells (S091)	0.518	0.477	0.153	0.0634	0.0604	0.846	0.811	0.395	0.14	0.107	0.873	0.58	0.328	0.224	0.143	0.85	0.737	0.826	0.782	0.658
primary B-PLL patient cells (S016)	0.188	0.0649	0.0214	0.0129	0.00911	1.07	0.793	0.4	0.177	0.0354	0.837	0.867	0.774	0.865	0.387	0.743	0.765	1.07	0.894	0.736
primary BL patient cells (S005)	1.08	1.45	1.16	0.541	0.665	1.06	0.802	0.738	0.591	0.382	1.28	0.972	1.12	0.756	0.544	0.881	0.79	1	0.914	0.909
primary CLL patient cells (S031)	0.346	0.162	0.0377	0.0133	0.00892	0.987	0.97	0.867	0.141	0.0256	0.859	0.812	0.727	0.562	0.132	0.885	0.779	0.828	0.705	0.739
primary CLL patient cells (S043)	0.88	0.236	0.0477	0.0213	0.0214	0.9	0.886	0.755	0.396	0.0668	1	1.01	0.985	1.03	0.594	0.974	1.01	0.969	0.95	0.86
primary DLBCL patient cells (S082)	0.992	0.622	0.328	0.0161	0.0147	0.786	0.499	0.13	0.0294	0.0162	0.931	1.05	0.958	1.07	0.737	0.964	0.887	0.915	0.825	0.837
primary FL patient cells (S022)	0.94	0.509	0.178	0.182	0.0171	0.921	0.849	0.939	0.84	0.204	0.885	0.977	0.887	0.827	0.153	1.1	0.939	1.13	0.877	1.02
primary FL patient cells (S087)	0.829	0.71	0.489	0.591	0.0467	0.983	0.894	0.838	0.723	0.466	0.905	0.986	0.868	0.846	0.619	1.02	0.984	0.967	0.924	0.902
